Data: paper PMC8550792, “Evolution of kinase polypharmacology across HSP90 drug discovery” (Cell Chemical Biology, 2021)

How the values were obtained:
Assay in all cases: biochemical
Type in all cases: biochemical
382 unique human kinases [1] = biological target: T1, 382 unique human kinases (Homo sapiens, UniProt Q9UM73); details: ALK, 10 uM; for remaining activity at 10 µM: read-out: % Enzyme Activity (relative to DMSO controls)
T1 construct: purchased Reaction Biology (HotSpot contract assay)
T1 sequence (Q9UM73 19-1620): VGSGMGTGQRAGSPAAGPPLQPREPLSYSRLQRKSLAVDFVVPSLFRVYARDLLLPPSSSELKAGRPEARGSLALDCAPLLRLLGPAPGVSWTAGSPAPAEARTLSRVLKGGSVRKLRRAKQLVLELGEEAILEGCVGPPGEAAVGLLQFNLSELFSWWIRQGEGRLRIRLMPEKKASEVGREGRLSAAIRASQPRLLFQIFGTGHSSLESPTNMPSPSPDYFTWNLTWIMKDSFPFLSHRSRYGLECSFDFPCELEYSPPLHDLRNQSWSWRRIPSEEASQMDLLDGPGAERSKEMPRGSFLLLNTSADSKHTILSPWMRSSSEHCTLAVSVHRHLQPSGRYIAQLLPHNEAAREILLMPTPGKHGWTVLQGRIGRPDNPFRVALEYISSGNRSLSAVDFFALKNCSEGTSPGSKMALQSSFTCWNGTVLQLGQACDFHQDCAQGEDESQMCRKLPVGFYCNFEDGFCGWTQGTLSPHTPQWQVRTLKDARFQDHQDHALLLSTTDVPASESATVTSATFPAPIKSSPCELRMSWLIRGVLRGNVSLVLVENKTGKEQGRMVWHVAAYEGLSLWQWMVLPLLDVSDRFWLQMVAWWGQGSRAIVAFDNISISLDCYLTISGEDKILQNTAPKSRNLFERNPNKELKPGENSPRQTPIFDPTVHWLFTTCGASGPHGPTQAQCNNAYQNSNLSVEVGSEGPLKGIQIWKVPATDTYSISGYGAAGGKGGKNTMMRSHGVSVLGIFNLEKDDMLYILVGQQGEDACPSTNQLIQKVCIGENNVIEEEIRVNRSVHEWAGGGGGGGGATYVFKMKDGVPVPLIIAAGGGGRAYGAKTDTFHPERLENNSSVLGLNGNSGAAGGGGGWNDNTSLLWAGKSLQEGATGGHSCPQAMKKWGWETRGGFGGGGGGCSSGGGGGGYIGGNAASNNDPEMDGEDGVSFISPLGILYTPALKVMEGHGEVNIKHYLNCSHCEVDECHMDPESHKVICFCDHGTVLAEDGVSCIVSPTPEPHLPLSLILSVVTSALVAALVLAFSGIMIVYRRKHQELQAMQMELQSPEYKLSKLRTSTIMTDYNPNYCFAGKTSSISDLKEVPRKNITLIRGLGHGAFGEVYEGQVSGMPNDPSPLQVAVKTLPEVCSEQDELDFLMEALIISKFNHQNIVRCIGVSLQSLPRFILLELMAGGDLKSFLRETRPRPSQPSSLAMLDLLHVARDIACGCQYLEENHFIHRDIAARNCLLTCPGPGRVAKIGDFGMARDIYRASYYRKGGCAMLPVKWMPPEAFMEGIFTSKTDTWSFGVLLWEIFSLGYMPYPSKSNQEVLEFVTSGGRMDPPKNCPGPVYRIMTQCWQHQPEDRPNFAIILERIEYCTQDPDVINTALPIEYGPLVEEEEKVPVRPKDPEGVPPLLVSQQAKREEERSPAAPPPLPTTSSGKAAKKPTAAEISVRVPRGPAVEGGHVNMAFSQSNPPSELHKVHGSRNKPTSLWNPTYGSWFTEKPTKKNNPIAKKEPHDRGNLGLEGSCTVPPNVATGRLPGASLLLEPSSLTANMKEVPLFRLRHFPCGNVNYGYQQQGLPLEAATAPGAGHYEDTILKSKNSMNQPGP

382 unique human kinases [2] = biological target: T2, 382 unique human kinases (Homo sapiens, UniProt O00418); details: kinase EEF2K, compound 10 uM; for remaining activity at 10 µM: read-out: % Enzyme Activity (relative to DMSO controls)
T2 construct: purchased Reaction Biology (HotSpot contract assay)
T2 sequence (O00418 1-725): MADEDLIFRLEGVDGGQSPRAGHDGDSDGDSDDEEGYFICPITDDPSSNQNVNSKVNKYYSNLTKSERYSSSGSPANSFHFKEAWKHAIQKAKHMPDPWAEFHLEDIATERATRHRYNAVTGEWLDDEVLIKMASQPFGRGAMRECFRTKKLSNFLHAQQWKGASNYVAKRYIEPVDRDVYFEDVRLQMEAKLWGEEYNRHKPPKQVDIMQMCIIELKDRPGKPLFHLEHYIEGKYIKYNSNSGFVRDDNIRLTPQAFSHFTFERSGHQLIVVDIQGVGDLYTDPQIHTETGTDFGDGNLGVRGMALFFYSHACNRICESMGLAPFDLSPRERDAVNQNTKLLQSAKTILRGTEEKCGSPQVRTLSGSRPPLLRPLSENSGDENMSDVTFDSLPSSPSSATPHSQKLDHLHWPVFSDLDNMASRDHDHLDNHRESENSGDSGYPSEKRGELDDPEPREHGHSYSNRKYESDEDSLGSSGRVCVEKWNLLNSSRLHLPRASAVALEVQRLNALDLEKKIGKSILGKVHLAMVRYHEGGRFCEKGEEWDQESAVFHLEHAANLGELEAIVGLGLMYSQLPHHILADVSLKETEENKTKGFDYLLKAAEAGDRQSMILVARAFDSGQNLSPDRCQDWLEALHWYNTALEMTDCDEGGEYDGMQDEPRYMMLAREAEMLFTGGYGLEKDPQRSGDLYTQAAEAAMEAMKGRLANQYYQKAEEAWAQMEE

382 unique human kinases [3] = biological target: T3, 382 unique human kinases (Homo sapiens, UniProt Q8TDX7); details: NEK7, compound at 10 uM, duplicate values; for remaining activity at 10 µM: read-out: % Enzyme Activity (relative to DMSO controls)
T3 construct: purchased Reaction Biology (HotSpot contract assay)
T3 sequence (Q8TDX7 whole entry): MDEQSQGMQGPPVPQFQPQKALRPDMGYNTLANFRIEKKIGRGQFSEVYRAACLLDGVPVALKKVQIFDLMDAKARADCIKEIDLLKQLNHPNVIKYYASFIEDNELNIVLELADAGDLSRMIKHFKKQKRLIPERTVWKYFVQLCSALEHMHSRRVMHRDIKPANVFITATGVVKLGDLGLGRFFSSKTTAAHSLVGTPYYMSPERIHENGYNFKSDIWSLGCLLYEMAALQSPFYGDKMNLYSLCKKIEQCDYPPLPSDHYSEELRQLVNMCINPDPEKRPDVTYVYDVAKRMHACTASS

382 unique human kinases [4] = biological target: T4, 382 unique human kinases (Homo sapiens, UniProt Q00536); details: CDK16/cyclin Y (PCTAIRE), 10 uM; for remaining activity at 10 µM: read-out: % Enzyme Activity (relative to DMSO controls)
T4 construct: purchased Reaction Biology (HotSpot contract assay)
T4 sequence (Q00536 whole entry): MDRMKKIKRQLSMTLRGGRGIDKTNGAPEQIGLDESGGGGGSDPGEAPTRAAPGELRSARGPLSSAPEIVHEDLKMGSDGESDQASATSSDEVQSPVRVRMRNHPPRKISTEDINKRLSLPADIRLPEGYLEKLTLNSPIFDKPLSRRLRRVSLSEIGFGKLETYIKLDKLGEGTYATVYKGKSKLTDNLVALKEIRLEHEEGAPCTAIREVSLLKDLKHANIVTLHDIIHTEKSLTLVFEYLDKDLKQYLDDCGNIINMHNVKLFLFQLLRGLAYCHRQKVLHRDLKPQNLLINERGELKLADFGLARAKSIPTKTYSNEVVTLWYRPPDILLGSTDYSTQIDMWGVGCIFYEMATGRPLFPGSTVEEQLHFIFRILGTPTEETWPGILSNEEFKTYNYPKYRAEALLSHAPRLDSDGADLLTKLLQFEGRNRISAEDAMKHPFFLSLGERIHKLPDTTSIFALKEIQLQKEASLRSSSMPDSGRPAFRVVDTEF

382 unique human kinases [5] = biological target: T5, 382 unique human kinases (Homo sapiens, UniProt Q9NZJ5); details: EIF2AK3, 10 uM; for remaining activity at 10 µM: read-out: % Enzyme Activity (relative to DMSO controls)
T5 construct: purchased Reaction Biology (HotSpot contract assay)
T5 sequence (Q9NZJ5 30-1116): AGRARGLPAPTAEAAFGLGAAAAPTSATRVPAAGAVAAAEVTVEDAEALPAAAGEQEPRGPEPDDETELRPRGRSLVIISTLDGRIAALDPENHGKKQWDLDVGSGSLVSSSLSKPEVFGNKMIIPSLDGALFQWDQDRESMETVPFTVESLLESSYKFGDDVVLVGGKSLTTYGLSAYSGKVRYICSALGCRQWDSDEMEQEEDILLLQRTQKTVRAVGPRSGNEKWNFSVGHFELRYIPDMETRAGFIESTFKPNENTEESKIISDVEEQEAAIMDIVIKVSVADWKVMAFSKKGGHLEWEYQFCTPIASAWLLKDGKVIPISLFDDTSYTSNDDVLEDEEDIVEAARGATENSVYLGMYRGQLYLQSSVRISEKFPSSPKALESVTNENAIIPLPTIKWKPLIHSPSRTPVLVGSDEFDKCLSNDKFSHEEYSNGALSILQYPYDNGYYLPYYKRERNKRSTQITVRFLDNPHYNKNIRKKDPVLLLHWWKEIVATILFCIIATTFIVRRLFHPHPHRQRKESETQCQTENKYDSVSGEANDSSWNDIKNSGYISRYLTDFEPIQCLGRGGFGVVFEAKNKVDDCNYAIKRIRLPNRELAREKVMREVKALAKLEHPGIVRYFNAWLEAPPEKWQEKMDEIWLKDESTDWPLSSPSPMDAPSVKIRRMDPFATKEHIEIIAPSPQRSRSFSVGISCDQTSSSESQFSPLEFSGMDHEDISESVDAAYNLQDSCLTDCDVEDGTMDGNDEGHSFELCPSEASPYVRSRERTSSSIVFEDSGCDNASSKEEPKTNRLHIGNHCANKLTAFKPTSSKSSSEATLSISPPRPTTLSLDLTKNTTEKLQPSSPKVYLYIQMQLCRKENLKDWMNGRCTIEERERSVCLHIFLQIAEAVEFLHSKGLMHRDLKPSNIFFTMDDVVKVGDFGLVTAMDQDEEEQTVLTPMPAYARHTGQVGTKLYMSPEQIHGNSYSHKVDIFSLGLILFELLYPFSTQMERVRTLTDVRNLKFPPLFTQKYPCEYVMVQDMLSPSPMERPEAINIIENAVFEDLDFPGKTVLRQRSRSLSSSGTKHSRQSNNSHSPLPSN

382 unique human kinases [6] = biological target: T6, 382 unique human kinases (Homo sapiens, UniProt P04629); details: TRKA, [ATP] 100 µM, compound 10 uM; for remaining activity at 10 µM: read-out: % Enzyme Activity (relative to DMSO controls)
T6 construct: purchased Reaction Biology (HotSpot contract assay)
T6 sequence (P04629 33-796): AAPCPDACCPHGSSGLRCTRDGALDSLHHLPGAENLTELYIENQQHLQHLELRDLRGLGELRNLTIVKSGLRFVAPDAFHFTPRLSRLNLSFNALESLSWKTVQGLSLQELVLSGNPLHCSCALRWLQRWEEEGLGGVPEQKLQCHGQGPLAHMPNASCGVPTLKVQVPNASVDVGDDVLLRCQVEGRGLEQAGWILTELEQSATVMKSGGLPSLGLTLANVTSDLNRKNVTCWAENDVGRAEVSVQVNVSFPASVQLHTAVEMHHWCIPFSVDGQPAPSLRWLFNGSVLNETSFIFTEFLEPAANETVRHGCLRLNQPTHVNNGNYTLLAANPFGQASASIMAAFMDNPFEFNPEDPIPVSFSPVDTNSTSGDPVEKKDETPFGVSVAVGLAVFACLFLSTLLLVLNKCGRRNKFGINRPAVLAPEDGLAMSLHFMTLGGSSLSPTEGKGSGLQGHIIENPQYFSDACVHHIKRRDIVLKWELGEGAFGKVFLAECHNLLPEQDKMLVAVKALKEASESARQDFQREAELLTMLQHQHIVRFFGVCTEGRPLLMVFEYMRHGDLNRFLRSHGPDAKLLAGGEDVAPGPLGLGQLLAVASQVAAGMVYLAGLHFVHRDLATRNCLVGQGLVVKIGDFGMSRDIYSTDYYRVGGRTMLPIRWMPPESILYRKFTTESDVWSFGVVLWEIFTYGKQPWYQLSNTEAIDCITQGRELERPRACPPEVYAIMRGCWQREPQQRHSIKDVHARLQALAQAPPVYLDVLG

382 unique human kinases [7] = biological target: T7, 382 unique human kinases (Homo sapiens, UniProt P51956); details: NEK3, 10 uM; for remaining activity at 10 µM: read-out: % Enzyme Activity (relative to DMSO controls)
T7 construct: purchased Reaction Biology (HotSpot contract assay)
T7 sequence (P51956 1-506): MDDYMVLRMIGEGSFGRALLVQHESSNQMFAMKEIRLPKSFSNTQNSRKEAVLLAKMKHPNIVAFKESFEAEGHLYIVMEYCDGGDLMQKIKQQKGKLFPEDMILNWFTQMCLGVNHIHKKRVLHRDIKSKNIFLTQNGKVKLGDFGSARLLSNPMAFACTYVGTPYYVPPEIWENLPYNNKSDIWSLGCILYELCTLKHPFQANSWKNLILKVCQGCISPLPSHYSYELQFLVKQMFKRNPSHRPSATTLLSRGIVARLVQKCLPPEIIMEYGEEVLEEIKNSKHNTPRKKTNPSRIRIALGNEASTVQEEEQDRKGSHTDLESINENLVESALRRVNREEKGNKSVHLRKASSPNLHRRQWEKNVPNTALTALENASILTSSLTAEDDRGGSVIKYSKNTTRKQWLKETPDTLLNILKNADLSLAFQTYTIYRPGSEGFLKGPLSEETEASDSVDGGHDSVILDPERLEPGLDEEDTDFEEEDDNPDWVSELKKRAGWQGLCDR

382 unique human kinases [8] = biological target: T8, 382 unique human kinases (Homo sapiens, UniProt P00533, DEL746-750); details: EGFR (d746-750), 10 uM; for remaining activity at 10 µM: read-out: % Enzyme Activity (relative to DMSO controls)
T8 construct: purchased Reaction Biology (HotSpot contract assay)

382 unique human kinases [9] = biological target: T9, 382 unique human kinases (Homo sapiens, UniProt P17612); details: PKA, 10 uM; for remaining activity at 10 µM: read-out: % Enzyme Activity (relative to DMSO controls)
T9 construct: purchased Reaction Biology (HotSpot contract assay)

| SMILES | remaining activity at 10 µM (382 unique human kinases [1]) | remaining activity at 10 µM (382 unique human kinases [2]) | remaining activity at 10 µM (382 unique human kinases [3]) | remaining activity at 10 µM (382 unique human kinases [4]) | remaining activity at 10 µM (382 unique human kinases [5]) | remaining activity at 10 µM (382 unique human kinases [6]) | remaining activity at 10 µM (382 unique human kinases [7]) | remaining activity at 10 µM (382 unique human kinases [8]) | remaining activity at 10 µM (382 unique human kinases [9]) | % Enzyme Activity (relative to DMSO controls) (382 unique human kinases [5]) | % Enzyme Activity (relative to DMSO controls) (382 unique human kinases [6]) | % Enzyme Activity (relative to DMSO controls) (382 unique human kinases [7]) | % Enzyme Activity (relative to DMSO controls) (382 unique human kinases [8]) | % Enzyme Activity (relative to DMSO controls) (382 unique human kinases [9]) | % Enzyme Activity (relative to DMSO controls) (382 unique human kinases [1]) | % Enzyme Activity (relative to DMSO controls) (382 unique human kinases [2]) | % Enzyme Activity (relative to DMSO controls) (382 unique human kinases [3]) | % Enzyme Activity (relative to DMSO controls) (382 unique human kinases [4]) |
| --- | --- | --- | --- | --- | --- | --- | --- | --- | --- | --- | --- | --- | --- | --- | --- | --- | --- | --- |
| CC(C)c1cc(-c2n[nH]c(=O)n2-c2ccc3c(ccn3C)c2)c(O)cc1O [Ganetespib (STA9090)] | 67.5% | 89.2% | 113% | 78% | – | – | – | – | – | – | – | – | – | – | – | – | – | – |
| CC(C)c1cc(-c2n[nH]c(=O)n2-c2ccc3c(ccn3C)c2)c(O)cc1O [Ganetespib] | – | – | – | – | 101% | 52.8% | 117% | 91.8% | 91% | – | – | – | – | – | – | – | – | – |
| CCNC(=O)c1noc(-c2cc(C(C)C)c(O)cc2O)c1-c1ccc(CN2CCOCC2)cc1 [Luminespib] | – | – | – | – | 104% | 101% | 91.5% | 94% | 111% | 103.58% | 101.35% | 90.60% | 93.74% | 108.65% | – | – | – | – |
| CCNC(=O)c1noc(-c2cc(C(C)C)c(O)cc2O)c1-c1ccc(CN2CCOCC2)cc1 [Luminespib (AUY-922)] | 97.2% | 105% | 116% | 100% | – | – | – | – | – | – | – | – | – | – | 95.41% | 102.88% | 116.20% | 100.35% |
